Patent US20180186755A1, “LYSYL OXIDASE-LIKE 2 INHIBITORS AND USES THEREOF” (PharmAkea, Inc., priority 2015, published 2018)
Where a name gives a salt, the structure may show the parent alone. Blank lines part the entries; values can stand above or below the compound they belong to.

Molecular target: T1, human LOXL2 (Homo sapiens, UniProt Q9Y4K0)
T1 construct: expressed in transfected cells; 10-20x concentrated conditioned media used as the enzyme source
T1 sequence (Q9Y4K0 26-774): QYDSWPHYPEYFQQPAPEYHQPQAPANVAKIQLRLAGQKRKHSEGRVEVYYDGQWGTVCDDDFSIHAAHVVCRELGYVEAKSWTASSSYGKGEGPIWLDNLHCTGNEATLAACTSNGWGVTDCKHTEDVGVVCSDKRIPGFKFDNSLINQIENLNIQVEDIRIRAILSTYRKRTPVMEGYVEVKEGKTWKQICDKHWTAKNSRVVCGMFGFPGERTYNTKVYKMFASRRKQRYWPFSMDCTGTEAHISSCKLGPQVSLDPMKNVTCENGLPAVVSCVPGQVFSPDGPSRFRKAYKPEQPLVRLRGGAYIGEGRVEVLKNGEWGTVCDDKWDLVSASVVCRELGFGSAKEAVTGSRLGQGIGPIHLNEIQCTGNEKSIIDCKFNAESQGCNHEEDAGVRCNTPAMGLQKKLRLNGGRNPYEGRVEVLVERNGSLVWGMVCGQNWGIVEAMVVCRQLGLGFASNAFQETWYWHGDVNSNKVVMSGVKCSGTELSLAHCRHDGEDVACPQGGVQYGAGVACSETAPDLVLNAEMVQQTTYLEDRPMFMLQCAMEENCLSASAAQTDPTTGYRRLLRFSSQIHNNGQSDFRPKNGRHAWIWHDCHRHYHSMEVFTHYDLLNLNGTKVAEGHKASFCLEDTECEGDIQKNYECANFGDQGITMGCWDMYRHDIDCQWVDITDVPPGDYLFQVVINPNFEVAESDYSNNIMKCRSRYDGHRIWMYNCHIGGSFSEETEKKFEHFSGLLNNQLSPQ
Assay: Human LOXL2 amine oxidase activity assay (Amplex Red fluorescence)
Format: biochemical
Settings: concentrated conditioned media from CHO cells stably expressing human LOXL2; 2 h at 37° C. preincubation; DAP substrate
Method: Example B-1: Human LOXL2 Amine Oxidase Activity Assay
LOXL2 amine oxidase activity is evaluated by measuring Amplex Red fluorescence using 10-20× concentrated conditioned media from CHO cells stably expressing human LOXL2.
To assay for amine oxidase activity, 10 μL of the concentrated conditioned media is incubated with 2 μL of test compound in DMSO and 73 μL Assay Buffer (50 mM Borate Buffer, pH8) for 2 h at 37° C. After the 2 h incubation, 5 ul of 10 mM 1,5-Diaminopentane (DAP) diluted in Assay Buffer and 10 μl of Amplex Red Mix (8.5 μl Assay Buffer+0.5 μl of 10 mM Amplex Red+1 μl of 500 U/ml Horseradish Peroxidase) are added and the plate mixed and immediately placed on the FlexStaion for fluorescence measurements. Fluorescence is read in kinetic mode every 2 min for 1 hour at excitation=544 and emission=590. The amine oxidase activity is calculated from the slope of the linear portion of the curve.

Compound: NCc1cc(Oc2cccc(C(=O)NCCC(=O)O)c2)ncn1 [Compound 1-7, 3-(3-((6-(Aminomethyl)pyrimidin-4-yl)oxy)benzamido)propanoic Acid Hydrochloride]
IC50: 100 to 1000 nM

Compound: NCc1cc(Oc2cccc3c2CCC(=O)N3CC(=O)O)ncn1 [Compound 1-14, 2-(5-((6-(Aminomethyl)pyrimidin-4-yl)oxy)-2-oxo-3,4-dihydroquinolin-1(2H)-yl)acetic Acid Hydrochloride]
IC50: 100 to 1000 nM

Compound: NCc1cc(Oc2cccc3c2ccn3CC(=O)N2CCCCC2)ncn1 [Compound 1-23, 2-(4-((6-(Aminomethyl)pyrimidin-4-yl)oxy)-1H-indol-1-yl)-1-(piperidin-1-yl)ethan-1-one]
IC50: 100 to 1000 nM

Compound: CC(C)(O)CNC(=O)c1cccc(COc2cc(CN)ncn2)c1 [Compound 1-34, 3-(((6-(Aminomethyl)pyrimidin-4-yl)oxy)methyl)-N-(2-hydroxy-2-methylpropyl)benzamide]
IC50: < 100 nM

Compound: NCc1cc(OCc2cccc(C(=O)N3CCC(O)(C(F)(F)F)CC3)c2)ncn1 [Compound 1-94, (3-(((6-(Aminomethyl)pyrimidin-4-yl)oxy)methyl)phenyl)(4-hydroxy-4-(trifluoromethyl)piperidin-1-yl)methanone]
IC50: < 100 nM

Compound: Cc1n[nH]c2c1CN(C(=O)c1cccc(COc3cc(CN)ncn3)c1)CC2 [Compound 1-89, (3-(((6-(Aminomethyl)pyrimidin-4-yl)oxy)methyl)phenyl)(3-methyl-6,7-dihydro-1H-pyrazolo[4,3-c]pyridin-5(4H)-yl)methanone]
IC50: < 100 nM

Compound: NCc1cc(NCc2cccc(C(=O)NCc3sc4ccccc4c3Cl)c2)ncn1 [Compound 1-98, 3-(((6-(Aminomethyl)pyrimidin-4-yl)amino)methyl)-N-((3-chlorobenzo[b]thiophen-2-yl)methyl)benzamide]
IC50: < 100 nM

Compound: Cn1cc(-n2ccc3c(Oc4cc(CN)ncn4)cccc32)cn1 [Compound 1-32, (6-((1-(1-Methyl-1H-pyrazol-4-yl)-1H-indol-4-yl)oxy)pyrimidin-4-yl)methanamine]
IC50: < 100 nM

Compound: NCc1cc(OCc2cccc(C(=O)NCc3ccnc(Cl)c3)c2)ncn1 [Compound 1-80, 3-(((6-(Aminomethyl)pyrimidin-4-yl)oxy)methyl)-N-((2-chloropyridin-4-yl)methyl)benzamide]
IC50: < 100 nM

Compound: NCc1cc(OCc2cccc(C(=O)NCc3cc4cc(F)ccc4s3)c2)ncn1 [Compound 1-82, 3-(((6-(Aminomethyl)pyrimidin-4-yl)oxy)methyl)-N-((5-fluorobenzo[b]thiophen-2-yl)methyl)benzamide]
IC50: < 100 nM

Compound: NCc1cc(N2CCN(C(=O)c3ccccc3)CC2)ncn1 [Compound 1-104, (4-(6-(Aminomethyl)pyrimidin-4-yl)piperazin-1-yl)(phenyl)methanone]
IC50: > 1000 nM

Compound: NCc1cc(NCc2cccc(C(=O)Nc3ccccc3)c2)ncn1 [Compound 1-43, 3-(((6-(Aminomethyl)pyrimidin-4-yl)amino)methyl)-N-phenylbenzamide]
IC50: < 100 nM

Compound: NCc1cc(Oc2cccc(C(=O)N3CCc4ccncc43)c2)ncn1 [Compound 1-52, (3-((6-(Aminomethyl)pyrimidin-4-yl)oxy)phenyl)(2,3-dihydro-H-pyrrolo[2,3-c]pyridin-1-yl)methanone, hydrochloride]
IC50: < 100 nM

Compound: Cn1c(CNC(=O)c2cccc(COc3cc(CN)ncn3)c2)cc2ccccc21 [Compound 1-86, 3-(((6-(Aminomethyl)pyrimidin-4-yl)oxy)methyl)-N-((1-methyl-1H-indol-2-yl)methyl)benzamide]
IC50: < 100 nM

Compound: NCc1cc(OCc2cccc(C(=O)NCc3cc4ccccc4[nH]3)c2)ncn1 [Compound 1-84, N-((1H-indol-2-yl)methyl)-3-(((6-(aminomethyl)pyrimidin-4-yl)oxy)methyl)benzamide]
IC50: < 100 nM

Compound: NCc1cc(Oc2cccc(C(=O)NCc3cc4ccccc4s3)c2)ncn1 [Compound 1-6, 3-((6-(Aminomethyl)pyrimidin-4-yl)oxy)-N-(benzo[b]thiophen-2-ylmethyl)benzamide hydrochloride]
IC50: < 100 nM

Results, then the compound that gave them:

IC50: < 100 nM
Compound: NCc1cc(Oc2cccc3c2CCC(=O)N3)ncn1 [Compound 1-101, 5-((6-(Aminomethyl)pyrimidin-4-yl)oxy)-3,4-dihydroquinolin-2(1H)-one]

IC50: < 100 nM
Compound: COc1ccc(CN2C(=O)CCc3c(Oc4cc(CN)ncn4)cccc32)cn1 [Compound 1-16, 5-((6-(Aminomethyl)pyrimidin-4-yl)oxy)-1-((6-methoxypyridin-3-yl)methyl)-3,4-dihydroquinolin-2(1H)-one acetate]

IC50: < 100 nM
Compound: NCc1cc(Nc2cccc(C(=O)Nc3ccccc3)c2)ncn1 [Compound 1-42, 3-((6-(Aminomethyl)pyrimidin-4-yl)amino)-N-phenylbenzamide]

IC50: < 100 nM
Compound: NCc1cc(Oc2ccc3cc[nH]c3c2)ncn1 [Compound 1-17, (6-((1H-Indol-6-yl)oxy)pyrimidin-4-yl)methanamine]

IC50: < 100 nM
Compound: NCc1cc(OCc2cccc(C(=O)NCc3cc4cc(F)ccc4[nH]3)c2)ncn1 [Compound 1-85, 3-(((6-(Aminomethyl)pyrimidin-4-yl)oxy)methyl)-N-((5-fluoro-1H-indol-2-yl)methyl)benzamide]

IC50: < 100 nM
Compound: NCc1cc(OCc2cccc(C(=O)NCc3cccnc3)c2)ncn1 [Compound 1-79, 3-(((6-(Aminomethyl)pyrimidin-4-yl)oxy)methyl)-N-(pyridin-3-ylmethyl)benzamide]

IC50: < 100 nM
Compound: NCc1cc(Oc2cccc3[nH]ncc23)ncn1 [Compound 1-60, (6-((1H-Indazol-4-yl)oxy)pyrimidin-4-yl)methanamine]

IC50: < 100 nM
Compound: Cc1n[nH]c2c1CN(C(=O)c1cccc(Oc3cc(CN)ncn3)c1)CC2 [Compound 1-70, (3-((6-(Aminomethyl)pyrimidin-4-yl)oxy)phenyl)(3-methyl-6,7-dihydro-1H-pyrazolo[4,3-c]pyridin-5(4H)-yl)methanone]

IC50: < 100 nM
Compound: NCc1cc(Oc2cccc(C(=O)N[C@@H](CO)c3ccccc3)c2)ncn1 [Compound 1-57, (R)-3-((6-(Aminomethyl)pyrimidin-4-yl)oxy)-N-(2-hydroxy-1-phenylethyl)benzamide]

IC50: < 100 nM
Compound: COc1ccc(Cn2c(C)cc3c(Oc4cc(CN)ncn4)cccc32)cn1 [Compound 1-30, (6-((1-((6-Methoxypyridin-3-yl)methyl)-2-methyl-1H-indol-4-yl)oxy)pyrimidin-4-yl)methanamine]

IC50: < 100 nM
Compound: NCc1cc(OCc2cccc(C(=O)N3CCCC(O)(C(F)(F)F)C3)c2)ncn1 (racemic) [Compound 1-35, Racemic-(3-(((6-(aminomethyl)pyrimidin-4-yl)oxy)methyl)phenyl)(3-hydroxy-3-(trifluoromethyl)piperidin-1-yl)methanone]

IC50: < 100 nM
Compound: NCc1cc(Oc2cccc(C(=O)N3CCC(O)(C(F)(F)F)CC3)c2)ncn1 [Compound 1-74, (3-((6-(Aminomethyl)pyrimidin-4-yl)oxy)phenyl)(4-hydroxy-4-(trifluoromethyl)piperidin-1-yl)methanone]

IC50: < 100 nM
Compound: COc1ccc(Cn2cc(C)c3c(Oc4cc(CN)ncn4)cccc32)cn1 [Compound 1-31, (6-((1-((6-Methoxypyridin-3-yl)methyl)-3-methyl-1H-indol-4-yl)oxy)pyrimidin-4-yl)methanamine]

IC50: < 100 nM
Compound: NCc1cc(Oc2cccc(C(=O)NCc3sc4ccccc4c3Cl)c2)ncn1 [Compound 1-64, 3-((6-(Aminomethyl)pyrimidin-4-yl)oxy)-N-((3-chlorobenzo[b]thiophen-2-yl)methyl)benzamide]

IC50: < 100 nM
Compound: NCc1cc(N2C(=O)CCc3c(OCc4ccccc4)cccc32)ncn1 [Compound 1-107, 1-(6-(Aminomethyl)pyrimidin-4-yl)-5-(benzyloxy)-3,4-dihydroquinolin-2(1H)-one]

IC50: < 100 nM
Compound: NCc1cc(Oc2cccc(C(=O)N3CCN(c4ccccn4)CC3)c2)ncn1 [Compound 1-58, (3-((6-(Aminomethyl)pyrimidin-4-yl)oxy)phenyl)(4-(pyridin-2-yl)piperazin-1-yl)methanone]

IC50: < 100 nM
Compound: NCc1cc(Oc2cccc(C(=O)N3CCN(c4ncc(Cl)cc4Cl)CC3)c2)ncn1 [Compound 1-73, (3-((6-(Aminomethyl)pyrimidin-4-yl)oxy)phenyl)(4-(3,5-dichloropyridin-2-yl)piperazin-1-yl)methanone]

IC50: < 100 nM
Compound: COC(=O)Cn1ccc2c(Oc3cc(CN)ncn3)cccc21 [Compound 1-21, Methyl 2-(4-((6-(aminomethyl)pyrimidin-4-yl)oxy)-1H-indol-1-yl)acetate]
